Columns and labels:
[1] = tested on: 5′ETS G4; assay: TOPRO3 fluorescent intercalator displacement (FID) assay, 5′ETS G4; format: binding; conditions: GA 10 µM, relative to GA-free control
Method: (§1) G4-oligonucleotides listed in Supplementary Table S3 were purchased from Integrated DNA Technologies (Clareville, IA, USA). All of them were dissolved in G4s buffer (10 mM potassium phosphate, 100 mM potassium chloride at pH 7.0), heated at 95 °C for 10 min, slowly cooled to RT, and stored at 4 °C.
We used TOPRO3 (T3605, Thermo Scientific, MA, USA) as a fluorescent intercalator for FID assays. In particular, […] TOPRO3 was incubated with […] prefolded G4s and exposed to 10 µM GA in 96-well plates. TOPRO3 was excited at 642 nm, and emission profile was monitored between 650–800 nm with Infinite M200 Plate Reader (Tecan). Fluorescence values were calculated as follows: %Fluorescence = A/B × 100; where (A) is the fluorescence value in presence of GA, and (B) corresponds to the fluorescence value in GA-free controls. All assays were conducted in triplicate. The G4-oligonucleotides used in the current study are listed in Supplementary Table S3.

[2] = molecular target: 5′ETS G4; assay: UV-vis titration, 5′ETS G4; format: binding; conditions: UV-vis titration at 265 nm, 5′ETS G4, 25 °C, pH 7.0; read-out: dissociation constant (Kd)
Method: as §1
UV-vis absorption spectra were registered in a Varian Cary 50 UV-vis spectrophotometer at 25 °C. Concentration of the prefolded G4 DNA was 5 μM in G4s buffer (10 mM potassium phosphate buffer containing 100 mM potassium chloride at pH 7.0). Once the DNA was placed in the cuvette, a concentrated solution of GA (1 mM) was routinely added, 1 μL each time, with a Hamilton syringe and subsequently mixed with a pipette. After each addition of the GA solution, a UV-vis spectrum was recorded. In total, 10 μL of GA solution were added, with a final ratio of 1:20 G4 DNA:GA. For the blank, the same experiment with the successive additions was repeated, beginning just with buffer in the cuvette. […] Dissociation constants (Kd) were evaluated at 265 nm using the following equation:(1) A=Am+(Aml-Am)×(M+L+Kd)−(M+L+Kd)^2−4×M×L/2×M where A is the absorbance signal, Am is the signal of DNA in absence of the ligand, Aml is the signal of DNA in presence of the ligand, M is the total concentration of DNA, L is the total concentration of ligand, and Kd is the dissociation constant.

[3] = tested on: 5′ETS (DNA, G4) GGGGGGCGGGTGGTTGGG; assay: fluorescent intercalator displacement (TOPRO3); conditions: oligonucleotide prefolded in 100 mM KCl, 10 mM potassium phosphate; TOPRO3 displaced; 10 µM GA, single concentration; prefolding buffer pH 7.0
[4] = tested on: SW480 xenograft; assay: SW480 xenograft study in NSG mice; format: in vivo, NOD scid gamma (NSG) mice
Method: NOD scid gamma (NSG) mice were purchased from CIBM-UGR and housed at the animal facility according to institutional guidelines (Approved Ethical Committee #152-CEEA-OH-2016). For xenograft generation, 1 × 10^5 SW480 cells in 100 μL PBS were subcutaneously injected into the flank of 8-week-old female mice. Treatment started when tumors reached ~20 mm^3. Mice were randomly divided into two groups of seven mice each and treated with either vehicle DMSO or 200 mg/kg of GA intraperitoneally every other day for 38 days. Animals were monitored every two days after cell injection until final time point when they were sacrificed, and tumors were dissected for further analyses. Specifically, tumor volumes were determined every two days using digital calipers according to the formula: In progress tumor volume = (π × length × width^2)/6 [12].
Fixation, paraffin-embedding, and sectioning of tumor samples were performed by the histopathology core service at the Centre for Genomics and Oncological Research (Granada, Spain). In order to evaluate the percentage of proliferating cells, tumor sections were immunostained with Ki67 and counterstained with hematoxylin and eosin (H&E) at Atrys Health (Barcelona, Spain). The staining was visualized using NDP.view2 Viewing software (Hamamatsu), and Ki67 coverage was quantified on ten different images per tumor using Fiji software. In order to measure BG4 signal, tumor sections were dewaxed and rehydrated following standard methods. Epitope retrieval was performed at 100 °C for 20 min with citrate buffer (citrate-based buffer pH 6.0) according to previous studies. […] Slides were then counterstained for 5 min with DAPI to visualize the cell nuclei. Antifade Mowiol (81381, Merck, Darmstadt, Germany) was used as mounting media. Images were acquired on a Confocal Zeiss LSM 710 inverted microscope with a 63× immersion objective. BG4 mean nuclear fluorescence intensity was quantified using Fiji software (N > 2000). Antibodies used are listed in Supplementary Table S1.
We investigated the activity of GA in a mouse xenograft model of CRC to determine if the in vitro activity of GA was paralleled in vivo. According to previous reports with SW480 cells, we executed xenograft studies by subcutaneous injection in NOD scid gamma (NSG) mice. Intraperitoneal treatment started when tumors reached ~20 mm^3 (35 days post-injection), and a therapeutic schedule with either a vehicle or 200 mg/kg of GA, every other day for 38 days, was explored based on previous studies. Initially, each group included seven animals but two mice from the control group were excluded because the tumors had developed late. Therefore, five mice were considered in the control group and seven in the GA-treated one. […] In particular, when comparing the tumor volume between control and treated animals at each time point by Student’s two-tailed t-test, significant differences were observed from the 23rd day after initiation of the treatment. Histopathological analyses of tumors from animals sacrificed at the ending point were also conducted. […] Furthermore, immunohistochemical assessment of the antigen Ki67 was used to estimate cell proliferation.

[5] = tested on: CMYC (CD and UV-vis oligonucleotide) (DNA, G4) TGGGGAGGGTGGGGAGGGTGGGGAAGG; assay: UV-vis titration at 265 nm; conditions: 100 mM KCl, 10 mM potassium phosphate; pH 7.0, 25 °C; 5 µM DNA; GA to 1:20 DNA:GA
[6] = tested on: CMYC (CD and UV-vis oligonucleotide) (DNA, G4) TGGGGAGGGTGGGGAGGGTGGGGAAGG; assay: circular dichroism; conditions: 100 mM KCl, 10 mM potassium phosphate; pH 7.0, 25 °C; 10 µM DNA, 100 µM GA; positive band decreased, no induced CD
[7] = tumors at end point, 200 mg/kg GA

O=C(O)c1cc(O)c(O)c(O)c1 [Gallic acid, 3,4,5-trihydroxybenzoic acid]
TOPRO3 fluorescence percentage [1]: 84.2% | Kd [2]: 148 µM | %Fluorescence [3]: 84.2% | body weight reduction or adverse effects ([4]; 200 mg/kg GA i.p. every other day for 38 days): No body weight reduction or adverse effects such as tumor ulceration was observed | progression of tumor xenografts (tumor volume) ([4]; 200 mg/kg GA i.p. every other day for 38 days vs vehicle): robust blockade on the progression of tumor xenografts | damage to major organs ([4]; CRC xenografts treated with GA): without causing observable damage to major organs | 5′ETS expression in tumors (qRT-PCR) ([4]; responder mice, 200 mg/kg GA): significantly downregulated | CMYC expression in tumors (qRT-PCR) ([4]; responder mice, 200 mg/kg GA): significantly downregulated | Ki67 coverage in tumor sections [4, 7]: coverage of Ki67 was significantly decreased | nuclear BG4 signal in tumor sections [4, 7]: significant increase in nuclear BG4 signal | Kd [5]: 113 µM | binding [6]: yes
